Measured values published in patent publication US12144864B2, “Tubulysins and protein-tubulysin conjugates” (Regeneron Pharmaceuticals, Inc., priority 2018, dated 2024).
pIC50: −log10 of the molar value. Like-named read-outs stand apart in the source and are kept apart here.

Columns and labels:
C4-2 cells = assay: Cell-based killing assay of payloads (CellTiter-Glo), C4-2 cells; set-up: species or system human; conditions: 5-day incubation; for pIC50: Homo sapiens, C4-2, 120 h, average ± SD where replicates; for C4-2 % Kill: at maximum concentration tested (100 − % viable cells)
Procedure, shortened: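 Viability readout is CellTiter-Glo luminescence after a 5-day exposure to 10-point, threefold-diluted payloads spanning 100 nM–[…], following overnight attachment of 4000 cells/well. Four-parameter logistic fit gives IC50 in M; % kill taken at highest concentration tested.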

T47D cells = assay: Cell-based killing assay of payloads (CellTiter-Glo), T47D cells; set-up: species or system human; conditions: 5-day incubation; for pIC50: Homo sapiens, T47D, 120 h; for T47D % Kill: at maximum concentration tested
Description: (§1) To test the ability of the disclosed tubulysin payloads to kill human cell lines, an in vitro cytotoxicity assay was performed. In vitro cytotoxicity of the disclosed payloads, as well as reference compounds, were evaluated using the CellTiter-Glo Assay Kit (Promega, Cat #G7573), in which the quantity of ATP present is used to determine the number of viable cells in culture. For the assay, C4-2, HEK293, or T47D cells were seeded at 4000 cells/well on Nunclon white 96-well plates in complete growth medium (DME high glucose:Ham's F12 at 4:1, 10% FBS, 100 units/ml Penicillin, 100 ug/ml streptomycin, 53 ug/ml glutatmine, 10 ug/ml insulin, 220 ng/ml biotin, 12.5 pg/ml T3, 12.5 ug/ml Adenine, 4 ug/ml transferrin for C42 cells; DME high glucose, 10% FBS, 100 units/ml Penicillin, 100 ug/ml streptomycin, 53 ug/ml glutatmine for HEK293; RPMI, 10% FBS, 100 units/ml Penicillin, 100 ug/ml streptomycin, 53 ug/ml glutatmine, 10 ug/ml insulin, 10 mM HEPEs, 200 nM Sodium Pyruvate for T47D cells) and grown overnight at 37° C. in 5% CO2. For cell viability curves, 1:3 serially diluted payloads were added to the cells at final concentrations ranging from 100 nM to […], including a no treatment control group, and were then incubated for 5 days. After the 5-day incubation, cells were incubated at room temperature with 100 μL of CellTiter-Glo reagents for 10 minutes. Relative luminescence units (RLU) were determined on a Victor plate reader (PerkinElmer). The IC50 values were determined from a four-parameter logistic equation over a 10-point response curve (GraphPad Prism). All IC50 values are expressed in molar (M) concentration. The percent cell killing (% kill) at the maximum concentration tested was estimated from the following formula (100−% viable cells). Averages±standard deviation (SD) are included where replicate experiments were performed.

HEK293 cells = assay: Cell-based killing assay of payloads (CellTiter-Glo), HEK293 cells; set-up: species or system human; conditions: 5-day incubation; for pIC50: Homo sapiens, HEK293, 120 h; for HEK293 % Kill: at maximum concentration tested
Description: as §1

HCT15 cells = assay: cells; assay type: cell-based, human; conditions: HCT15 cells
Procedure, shortened: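 Five-day exposure of 1000 HCT15 cells/well to threefold payload dilutions, run both plus and minus verapamil (5 ug/mL) in RPMI with 10% FBS. ATP luminescence (CellTiter-Glo) gives viability; four-parameter logistic fit of 10 points yields IC50, and 100 − % viable at highest dose gives % kill.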

HL60/MX2 cells = assay: Cytotoxicity in panel of MDR cell lines, HL60/MX2 (72 h and 144 h); assay type: cell-based, human; conditions: for pIC50: Homo sapiens
Procedure, shortened: (§2)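 MDR lines (HCT-15; doxorubicin-resistant H69AR; mitoxantrone-resistant MES-SA/MX2 and HL60/MX2) seeded at 1000 cells/well in normal growth media, treated with 1:3 serially diluted payloads for 72 h and 144 h. Viability by CellTiter-Glo ATP luminescence; IC50 from four-parameter logistic fit of 10-point curves.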

MES-SA/MX2 cells = assay: Cytotoxicity in panel of MDR cell lines, MES-SA/MX2 (72 h and 144 h); assay type: cell-based, human; conditions: for pIC50: Homo sapiens
Procedure, shortened: as §2

HCT-15 cells = assay: Cytotoxicity in panel of MDR cell lines, HCT-15 (72 h and 144 h); assay type: cell-based, human; conditions: for pIC50: Homo sapiens
Procedure, shortened: as §2

H69AR cells = assay: Cytotoxicity in panel of MDR cell lines, H69AR (72 h and 144 h); assay type: cell-based, human; conditions: for pIC50: Homo sapiens
Procedure, shortened: as §2

[1] = without Verapamil, maximum % cell killing
[2] = Homo sapiens, HCT-15, without Verapamil, read-out: HCT-15 IC50
[3] = 72 h incubation, read-out: HL60/MX2 IC50 72 h
[4] = 144 h incubation, read-out: HL60/MX2 IC50 144 h
[5] = 72 h incubation, read-out: MES-SA/MX2 IC50 72 h
[6] = 144 h incubation, read-out: MES-SA/MX2 IC50 144 h
[7] = 72 h incubation, read-out: HCT-15 IC50 72 h
[8] = 144 h incubation, read-out: HCT-15 IC50 144 h
[9] = 72 h incubation, read-out: H69AR IC50 72 h
[10] = 144 h incubation, read-out: H69AR IC50 144 h

Structure (SMILES)	pIC50 (C4-2 cells)	C4-2 % Kill (C4-2 cells) [%]	pIC50 (T47D cells)	T47D % Kill (T47D cells) [%]	pIC50 (HEK293 cells)	HEK293 % Kill (HEK293 cells) [%]	HCT-15 % Kill (HCT15 cells; [1]) [%]	pIC50 (HCT15 cells; [2])	HL60/MX2 % Kill 72 h (HL60/MX2 cells; 72 h incubation) [%]	HL60/MX2 % Kill 144 h (HL60/MX2 cells; 144 h incubation) [%]	pIC50 (HL60/MX2 cells; [3])	pIC50 (HL60/MX2 cells; [4])	MES-SA/MX2 % Kill 72 h (MES-SA/MX2 cells; 72 h incubation) [%]	MES-SA/MX2 % Kill 144 h (MES-SA/MX2 cells; 144 h incubation) [%]	pIC50 (MES-SA/MX2 cells; [5])	pIC50 (MES-SA/MX2 cells; [6])	HCT-15 % Kill 72 h (HCT-15 cells; 72 h incubation) [%]	HCT-15 % Kill 144 h (HCT-15 cells; 144 h incubation) [%]	pIC50 (HCT-15 cells; [7])	pIC50 (HCT-15 cells; [8])	other results
CC[C@H](C)[C@H](NC(=O)[C@H]1CCCCN1C)C(=O)N(CCCCc1cn(C)nn1)[C@H](C[C@@H](OC(C)=O)c1nc(C(=O)N[C@@H](Cc2ccc(N)cc2)CC(C)(C)C(=O)O)cs1)C(C)C [IVh, (S)-4-(2-((1R,3R)-1-acetoxy-4-methyl-3-((2S,3S)-3-methyl-N-(4-(1-methyl-1H-1,2,3-triazol-4-yl)butyl)-2-((R)-1-methylpiperidine-2-carboxamido)pentanamido)pentyl)thiazole-4-carboxamido)-5-(4-aminophenyl)-2,2-dimethylpentanoic acid]	9.19	82 ± 2.8	8.73	71.6	8.75	82.5	94.6 ± 3.5	8.60	96.4	100	8.95	> 10.82	98.5	99.9	8.13	8.06	95.4	99.7	8.82	8.82	H69AR % Kill 72 h (H69AR cells; 72 h incubation): 90.2%; H69AR % Kill 144 h (H69AR cells; 144 h incubation): 97.5%; pIC50 (H69AR cells; [9]): 8.53; pIC50 (H69AR cells; [10]): 8.48
C#CCCCCN(C(=O)[C@@H](NC(=O)[C@H]1CCCCN1C)[C@@H](C)CC)[C@H](C[C@@H](OC(C)=O)c1nc(C(=O)N[C@@H](Cc2ccc(O)cc2)C[C@H](C)C(=O)O)cs1)C(C)C [IVf, (2S,4R)-4-({2-[(1R,3R)-1-(Acetyloxy)-3-[(2S,3S)—N-(hex-5-yn-1-yl)-3-methyl-2-{[(2R)-1-methylpiperidin-2-yl]formamido}pentanamido]-4-methylpentyl]-1,3-thiazol-4-yl}formamido)-5-(4-hydroxyphenyl)-2-methylpentanoic acid]	9.64	93.8	9.11	67.1	8.79	86.0	96.4	9.26	97.2	100	9.65	> 10.82	99.1	99.9	8.59	8.42	96.9	99.8	9.38	9.40	HCT-15 + verapamil % Kill (HCT15 cells; with 5 ug/mL Verapamil, maximum % cell killing): 97.7%; pIC50 (HCT15 cells; with 5 ug/mL Verapamil, read-out: HCT-15 + verapamil IC50): 9.16; H69AR % Kill 72 h (H69AR cells; 72 h incubation): 94.6%; H69AR % Kill 144 h (H69AR cells; 144 h incubation): 98.9%; pIC50 (H69AR cells; [9]): 8.88; pIC50 (H69AR cells; [10]): 8.81
